# Test results reported in patent publication US20090311237A1, “Combination therapy using a soluble hyaluronidase and a bisphosphonate” (priority 2008, published 2009).
# Read-outs that look alike come from different tables or passages of the source.
# Test: Pharmacokinetics of ZA in pig serum after IV or SC infusion with or without rHuPH20 (LC-MS-MS, non-compartmental analysis)
# Assay type: in vivo
# Description: A pharmacokinetic study of zoledronic acid (ZA) co-administered with rHuPH20 in female Yorkshire swines was conducted. The primary objective of the study was to determine the bioavailability of zoledronic acid dosed via subcutaneous (SC) co-administration with human recombinant hyaluronidase PH20 (rHuPH20) and to compare the overall exposure to an equivalent IV dose.
# Animals in Study Group 1 were dosed with 0.15 mg/kg ZA given via a 20-minute IV infusion. Animals in Study Groups 2 and 3 were dosed subcutaneously (SC) with 0.15 mg/kg ZA without and with rHuPH20, respectively, in different SC delivery volumes.
# Following ZA dose administration, serial blood samples were collected via vascular access ports (VAPs) for serum preparation and determination of ZA concentrations. Blood collection times were at 1, 3, 5, 10, 15, 20, 30, 45, and 60 minutes, and at 1.5, 2, 3, 4, 6, 8, 10, 24, 48, and 72 hours post dose. Urine samples were also collected to compare excretion characteristics between IV and SC routes of administration. Collection times for urine were at 15 minutes before dosing (−15 min.), continuously from dose initiation to 2 hours post dose, and at 4, 6, 8, and 24 hours post dose thereafter.
# Serum concentration of ZA was determined using a qualified LC-MS-MS assay after derivatization with diazomethane (Zhu, L S et al. (2006) Rapid Commun. Mass Spectrom. 20: 3421-3426; “Qualification Data of An LC-MS/MS Method for the Determination of Zoledronate in Porcine Serum”, MDS Pharma Services Study No. AA43671-01, Report Date 14 Sep. 2007). The assay range was from 2.0 to 400 ng/mL with a lower limit of quantitation (LLOQ) at 2.0 ng/mL. Urine concentration of ZA was determined by a similar well qualified LC-MS-MS method (“Qualification Data of An LC-MS/MS Method for the Determination of Zoledronate in Porcine Urine”, MDS Pharma Services Study No. AA43671-02, Report Date 14 Sep. 2007) with an assay LLOQ at 10 ng/mL.
# Pharmacokinetic (PK) analyses of ZA serum concentration versus time data were conducted using WinNonlin v5.1 (Pharsight, Mountain View, Calif.). Non-compartmental analysis was used for derivation of primary and secondary pharmacokinetic (PK) parameters. AUC, Cmax, and Tmax were compared between dose routes, between co-administration with rHuPH20, and with dose of rHuPH20.
# [1] = female, Yorkshire, pig, serum, subcutaneous, […], pig 66, Study Group 3, SC, ZA […], rHuPH20 10000 U/mL, 100 mL over 16 min, read-out: Zoledronic Acid Serum Concentration
# [2] = female, Yorkshire, pig, serum, subcutaneous, […], pig 68, Study Group 3, SC, ZA […], rHuPH20 10000 U/mL, 10 mL over 1.6 min, read-out: Zoledronic Acid Serum Concentration
# [3] = female, Yorkshire, pig, serum, subcutaneous, pig 56, Study Group 3, SC, ZA […], rHuPH20 10000 U/mL, 25 mL over 4 min, read-out: Zoledronic Acid Serum Concentration
# [4] = female, Yorkshire, pig, serum, subcutaneous, pig 58, Study Group 3, SC, ZA […], rHuPH20 10000 U/mL, 50 mL over 8 min, read-out: Zoledronic Acid Serum Concentration
# [5] = female, Yorkshire, pig, serum, subcutaneous, pig 68, Study Group 3, SC, ZA […], rHuPH20 10000 U/mL, 10 mL over 1.6 min, read-out: Zoledronic Acid Serum Concentration
compound,measurement,setting,value
"O=P(O)(O)C(O)(Cn1ccnc1)P(=O)(O)O [ZA, 1-hydroxy-2-(1H-imidazol-1-yl)ethylidene-1,1-bisphosphonic acid]",concentration at 4 h,"female, Yorkshire, pig, serum, subcutaneous, […], pig 64, Study Group 3, SC, ZA […], rHuPH20 10000 U/mL, 100 mL over 16 min, read-out: Zoledronic Acid Serum Concentration",19 ng/mL
same,concentration at 6 h,"female, Yorkshire, pig, serum, subcutaneous, […], pig 64, Study Group 3, SC, ZA […], rHuPH20 10000 U/mL, 100 mL over 16 min, time 6 h, read-out: Zoledronic Acid Serum Concentration",5.75 ng/mL
same,concentration at 0.05 h,[1],12 ng/mL
same,concentration at 0.333 h,[1],103 ng/mL
same,concentration at 0.5 h,[1],78.2 ng/mL
same,concentration at 1 h,[1],53.3 ng/mL
same,concentration at 2 h,[1],23.2 ng/mL
same,concentration at 3 h,[1],11.4 ng/mL
same,concentration at 4 h,[1],6.39 ng/mL
same,concentration at 0.05 h,[2],342 ng/mL
same,concentration at 0.333 h,[2],201 ng/mL
same,concentration at 0.5 h,[2],175 ng/mL
same,concentration at 0.05 h,[3],101 ng/mL
same,concentration at 0.333 h,[3],235 ng/mL
same,concentration at 0.5 h,[3],194 ng/mL
same,concentration at 1 h,[3],128 ng/mL
same,concentration at 2 h,[3],59.7 ng/mL
same,concentration at 3 h,[3],31.2 ng/mL
same,concentration at 4 h,[3],17.6 ng/mL
same,concentration at 5 h,"female, Yorkshire, pig, serum, subcutaneous, pig 56, Study Group 3, SC, ZA […], rHuPH20 10000 U/mL, 25 mL over 4 min, time 5 h, read-out: Zoledronic Acid Serum Concentration",19.6 ng/mL
same,concentration at 6 h,"female, Yorkshire, pig, serum, subcutaneous, pig 56, Study Group 3, SC, ZA […], rHuPH20 10000 U/mL, 25 mL over 4 min, time 6 h, read-out: Zoledronic Acid Serum Concentration",7.21 ng/mL
same,concentration at 8 h,"female, Yorkshire, pig, serum, subcutaneous, pig 56, Study Group 3, SC, ZA […], rHuPH20 10000 U/mL, 25 mL over 4 min, time 8 h, read-out: Zoledronic Acid Serum Concentration",2.28 ng/mL
same,concentration at 0.05 h,[4],73.8 ng/mL
same,concentration at 0.333 h,[4],270 ng/mL
same,concentration at 0.5 h,[4],177 ng/mL
same,concentration at 1 h,[4],107 ng/mL
same,concentration at 1 h,[5],90.6 ng/mL
same,concentration at 2 h,[5],43.2 ng/mL
same,concentration at 3 h,[5],17 ng/mL
same,concentration at 4 h,[5],7.09 ng/mL
same,concentration at 6 h,"female, Yorkshire, pig, serum, subcutaneous, pig 68, Study Group 3, SC, ZA […], rHuPH20 10000 U/mL, 10 mL over 1.6 min, time 6 h, read-out: Zoledronic Acid Serum Concentration",2.68 ng/mL
same,concentration at […],"female, Yorkshire, pig, serum, subcutaneous, pig 68, Study Group 3, SC, ZA […], rHuPH20 10000 U/mL, 10 mL over 1.6 min, time […], read-out: Zoledronic Acid Serum Concentration",50.5 ng/mL
same,Zoledronic Acid Serum Concentration,"pig 56, Study Group 3, SC, ZA […], rHuPH20 10000 U/mL, 25 mL over 4 min, time 10 h",BLQ^a (below assay limit of quantification (2.0 ng/mL))
same,Zoledronic Acid Serum Concentration,"pig 56, Study Group 3, SC, ZA […], rHuPH20 10000 U/mL, 25 mL over 4 min, time 24 h",BLQ (below assay limit of quantification (2.0 ng/mL))
same,Zoledronic Acid Serum Concentration,"pig 56, Study Group 3, SC, ZA […], rHuPH20 10000 U/mL, 25 mL over 4 min, time 48 h",BLQ (below assay limit of quantification (2.0 ng/mL))
same,Zoledronic Acid Serum Concentration,"pig 56, Study Group 3, SC, ZA […], rHuPH20 10000 U/mL, 25 mL over 4 min, time 72 h",BLQ (below assay limit of quantification (2.0 ng/mL))
same,Zoledronic Acid Serum Concentration,"pig 56, Study Group 3, SC, ZA […], rHuPH20 10000 U/mL, 25 mL over 4 min, time […]",BLQ (below assay limit of quantification (2.0 ng/mL))
same,Zoledronic Acid Serum Concentration,"pig 58, Study Group 3, SC, ZA […], rHuPH20 10000 U/mL, 50 mL over 8 min, time 8 h",BLQ (below assay limit of quantification (2.0 ng/mL))
same,Zoledronic Acid Serum Concentration,"pig 58, Study Group 3, SC, ZA […], rHuPH20 10000 U/mL, 50 mL over 8 min, time 10 h",BLQ (below assay limit of quantification (2.0 ng/mL))
same,Zoledronic Acid Serum Concentration,"pig 58, Study Group 3, SC, ZA […], rHuPH20 10000 U/mL, 50 mL over 8 min, time 24 h",BLQ (below assay limit of quantification (2.0 ng/mL))
same,Zoledronic Acid Serum Concentration,"pig 58, Study Group 3, SC, ZA […], rHuPH20 10000 U/mL, 50 mL over 8 min, time 48 h",BLQ (below assay limit of quantification (2.0 ng/mL))
same,Zoledronic Acid Serum Concentration,"pig 58, Study Group 3, SC, ZA […], rHuPH20 10000 U/mL, 50 mL over 8 min, time 72 h",BLQ (below assay limit of quantification (2.0 ng/mL))
same,Zoledronic Acid Serum Concentration,"pig 58, Study Group 3, SC, ZA […], rHuPH20 10000 U/mL, 50 mL over 8 min, time […]",BLQ (below assay limit of quantification (2.0 ng/mL))
same,Zoledronic Acid Serum Concentration,"pig 64, Study Group 3, SC, ZA […], rHuPH20 10000 U/mL, 100 mL over 16 min, time 8 h",BLQ (below assay limit of quantification (2.0 ng/mL))
same,Zoledronic Acid Serum Concentration,"pig 64, Study Group 3, SC, ZA […], rHuPH20 10000 U/mL, 100 mL over 16 min, time 10 h",BLQ (below assay limit of quantification (2.0 ng/mL))
same,Zoledronic Acid Serum Concentration,"pig 64, Study Group 3, SC, ZA […], rHuPH20 10000 U/mL, 100 mL over 16 min, time 24 h",BLQ (below assay limit of quantification (2.0 ng/mL))
same,Zoledronic Acid Serum Concentration,"pig 64, Study Group 3, SC, ZA […], rHuPH20 10000 U/mL, 100 mL over 16 min, time 48 h",BLQ (below assay limit of quantification (2.0 ng/mL))
same,Zoledronic Acid Serum Concentration,"pig 64, Study Group 3, SC, ZA […], rHuPH20 10000 U/mL, 100 mL over 16 min, time 72 h",BLQ (below assay limit of quantification (2.0 ng/mL))
same,Zoledronic Acid Serum Concentration,"pig 64, Study Group 3, SC, ZA […], rHuPH20 10000 U/mL, 100 mL over 16 min, time […]",BLQ (below assay limit of quantification (2.0 ng/mL))
same,Zoledronic Acid Serum Concentration,"pig 66, Study Group 3, SC, ZA […], rHuPH20 10000 U/mL, 100 mL over 16 min, time 6 h",BLQ (below assay limit of quantification (2.0 ng/mL))
same,Zoledronic Acid Serum Concentration,"pig 66, Study Group 3, SC, ZA […], rHuPH20 10000 U/mL, 100 mL over 16 min, time 8 h",BLQ (below assay limit of quantification (2.0 ng/mL))
same,Zoledronic Acid Serum Concentration,"pig 66, Study Group 3, SC, ZA […], rHuPH20 10000 U/mL, 100 mL over 16 min, time 10 h",BLQ (below assay limit of quantification (2.0 ng/mL))
same,Zoledronic Acid Serum Concentration,"pig 66, Study Group 3, SC, ZA […], rHuPH20 10000 U/mL, 100 mL over 16 min, time 24 h",BLQ (below assay limit of quantification (2.0 ng/mL))
same,Zoledronic Acid Serum Concentration,"pig 66, Study Group 3, SC, ZA […], rHuPH20 10000 U/mL, 100 mL over 16 min, time 48 h",BLQ (below assay limit of quantification (2.0 ng/mL))
same,Zoledronic Acid Serum Concentration,"pig 66, Study Group 3, SC, ZA […], rHuPH20 10000 U/mL, 100 mL over 16 min, time 72 h",BLQ (below assay limit of quantification (2.0 ng/mL))
same,Zoledronic Acid Serum Concentration,"pig 66, Study Group 3, SC, ZA […], rHuPH20 10000 U/mL, 100 mL over 16 min, time […]",BLQ (below assay limit of quantification (2.0 ng/mL))
same,Zoledronic Acid Serum Concentration,"pig 68, Study Group 3, SC, ZA […], rHuPH20 10000 U/mL, 10 mL over 1.6 min, time 8 h",BLQ (below assay limit of quantification (2.0 ng/mL))
same,Zoledronic Acid Serum Concentration,"pig 68, Study Group 3, SC, ZA […], rHuPH20 10000 U/mL, 10 mL over 1.6 min, time 10 h",BLQ (below assay limit of quantification (2.0 ng/mL))
same,Zoledronic Acid Serum Concentration,"pig 68, Study Group 3, SC, ZA […], rHuPH20 10000 U/mL, 10 mL over 1.6 min, time 24 h",BLQ (below assay limit of quantification (2.0 ng/mL))
same,Zoledronic Acid Serum Concentration,"pig 68, Study Group 3, SC, ZA […], rHuPH20 10000 U/mL, 10 mL over 1.6 min, time 48 h",BLQ (below assay limit of quantification (2.0 ng/mL))
same,Zoledronic Acid Serum Concentration,"pig 68, Study Group 3, SC, ZA […], rHuPH20 10000 U/mL, 10 mL over 1.6 min, time 72 h",BLQ (below assay limit of quantification (2.0 ng/mL))
same,Zoledronic Acid Serum Concentration,"pig 68, Study Group 3, SC, ZA […], rHuPH20 10000 U/mL, 10 mL over 1.6 min, time […]",BLQ (below assay limit of quantification (2.0 ng/mL))
same,T½ λz,"pig, ZA […] 20-min IV infusion, individual pigs 57, 61, 67",46.8 min
